Consider nine molecules from patent EP2952497A1, “Method for neutralizing detrimental effects of thiolbearing compounds on metal catalysts” (Universität Basel, priority 2014, dated 2015).

What is called kcat is the maximal rate divided by the concentration of active sites.

A short description of data set [1]: screening of GSH neutralizing agents in GSH-spiked solutions before imine reduction. Format: biochemical. The following applies: for efficacy as GSH neutralizing agent: solutions spiked with 2.5 mmol/l GSH, incubated with agent before adding Ir-catalyst, reaction 2 days; for compatibility with the catalytic systems: solutions with or without Sav isoform, with or without 2.5 mmol/l GSH. How it is done:
Michael acceptors and oxidizing agents known to react with GSH were selected to yield the corresponding thioether and disulfide, respectively. The following Michael acceptors were tested: maleinimide (Malln), 2-bromo-1-phenylethanone (BrPheOne), phenyl-vinylsulfone (PheViSul) and 3-Phenyl-2-propynenitrile (PhePropNit). The following oxidizing agents were selected: oxone (Ox), 1,4-benzoquinone (BQ), K3[Fe(CN)6] Fe^3+, and diamide (DiAm) (figure 2). For this purpose, solutions either with or without a Sav isoform were spiked with 2.5 mmol/l GSH and incubated overnight in presence of different concentrations of a particular GSH neutralizing agent before adding the Ir-catalyst. The reactions were initiated by addition of the imine substrate and run for 2 days (see Table 2).
An equimolar amount has no benefit on the reaction whereas four equivalents led to a decrease in conversion and enantioselectivity in the case of the S112K mutant. • 4) Despite the fact that H2O2 is commonly used to oxidize GSH, Ox was favoured for this purpose. […] Increasing the concentration of the GSH neutralizing agents leads to less consistent results. The outcome of the reaction depends on the Sav-mutant (if any) is used. […] A similar behaviour is observed with BrPheOne when no Sav or the S112K mutant was present.

Data set [2] has as its system [Cp*Ir(biot-p-L)Cl] c S112A Sav ATHase (streptavidin variant S112A, SEQ ID NO 1). As to conditions: substrate not given, taken as the imine (salsolidine precursor); cited from earlier work.
Data set [3] has as its system [Cp*Ir(biot-p-L)Cl] c S112K Sav ATHase (streptavidin variant S112K, SEQ ID NO 2). As to conditions: substrate not given, taken as the imine (salsolidine precursor); cited from earlier work.
For data set [4], the system named is living cells, including E. coli. The following applies: cited from earlier work.
Data set [5] deals with [Cp*Ir(biot-p-L)Cl] c S112A Sav (streptavidin variant S112A, SEQ ID NO 1). As to conditions: 2.5 mM GSH; substrate 10 mM; purified Sav; RT, 48 h. The protocol:
(§1) Initial experiments were performed using 50 µmol/l [Cp*Ir(biot-p-L)Cl], 100 µmol/l biotin binding sites (i.e. 25 µmol/l tetrameric Sav), 1 M HCO2Na in MOPS buffer ([…], pH 7) (see scheme 1). For comparison purposes, the imine reduction was performed with [Cp*Ir(biot-p-L)Cl]; [Cp*Ir(biot-p-L)Cl] c S112A Sav and [Cp*Ir(biot-p-L)Cl] c S112K Sav, cf. scheme 1.
(§2) Without wishing to be bound by theory, the inventors speculate that oxidizing GSH or derivatizing its thiol function could -at least partially- prevent inhibition of the hybrid catalysts.

In data set [6] the test system is [Cp*Ir(biot-p-L)Cl] c S112K Sav (streptavidin variant S112K, SEQ ID NO 2). As to conditions: 2.5 mM GSH; substrate 10 mM; purified Sav; RT, 48 h. The protocol:
as §1, §2

For `N#CC#Cc1ccccc1` [PhePropNit, 3-Phenyl-2-propynenitrile], the “efficacy as GSH neutralizing agent” value in data set [1] is “most effective when applied at a ratio PhePropNit/GSH 2:1”.

With `C=CS(=O)(=O)c1ccccc1` [PheViSul, phenyl-vinylsulfone], in data set [1], the “efficacy as GSH neutralizing agent” value is listed as “most effective GSH neutralizing agents” and the “compatibility with the catalytic systems” value is recorded as “does not affect the free Ir-complex”.

Consider `O=C1C=CC(=O)N1` [Malln, maleinimide], for which the “compatibility with the catalytic systems” value in data set [1] is listed as “limited compatibility”.

As for `COc1cc2c(cc1OC)C(C)=NCC2` [salsolidine precursor, 1-methyl-6,7-dimethoxy-3,4-dihydroisoquinoline], the kcat in data set [2] was 0.19 s⁻¹; in data set [3], 0.0433 s⁻¹.

Consider `CN(C)C(=O)/N=N/C(=O)N(C)C` [DiAm, diamide], for which, in data set [1], the “efficacy as GSH neutralizing agent” value was “most effective GSH neutralizing agents” and the “compatibility with the catalytic systems” value is “fully compatible with the artificial metalloenzymes”. Further, the “compatibility with living cells” value in data set [4] was “causing neither lysis nor death”.

Consider oxone, for which the “efficacy as GSH neutralizing agent” value in data set [1] is “efficacy is most pronounced with four equivalents vs. GSH”.

Turning to `N[C@@H](CCC(=O)N[C@@H](CS)C(=O)NCC(=O)O)C(=O)O` [GSH, glutathione], the “inhibition of reduction of the salsolidine precursor” value in data set [5] and in data set [6] was “no activity” in each case.

On to `O=C1C=CC(=O)C=C1` [BQ, 1,4-benzoquinone], for which, in data set [1], the “compatibility with the catalytic systems” value is reported as “not compatible with any of the three catalytic systems”.

Regarding `O=C(CBr)c1ccccc1` [BrPheOne, 2-bromo-1-phenylethanone], the “efficacy as GSH neutralizing agent” value in data set [1] is given as “most effective GSH neutralizing agents”.
